From patent US4659712A, “Fodder additive and a process for the preparation” (Richter Gedeon Vegyeszeti Gyar Rt., priority 1984, dated 1987)

Legend:
[1] = in vivo; cited from earlier work
[2] = administered as a fodder additive; cited from earlier work
[3] = Quinoxaline-2-carboxylic acid (Carbadox metabolite) residue in pig muscle (ham, chop), liver and kidney after flumecinol treatment; format: in vivo, pigs
Protocol: Tests were carried out at a large-scale pig farm, where 25 mg/kg of body weight of Carbadox admixed with the fodder of the pigs were administered to pigs having a live weight of 40 kg. From a population fed with this fodder 27 animals, each weighing exactly 40 kg, were selected, by weighing them separately. The selected animals were railed off in a place suitable for further tests. From this time on (zero time) the animals were given the same fodder as before, except Carbadox.
The 27 animals were divided into three groups as follows:
Group I: 12 animals (ser. Nos. from 1 to 12) slaughtering: three animals each when starting the experiment (0 time) and on the 1st, 5th and 15th days (positive control group) Group II: 9 amimals (ser. Nos. from 13 to 21) treatment: a single 40 mg/kg of body weight dose of flumecinol at zero time. slaughtering: three animals each on the 1st, 5th and 15th days (group treated with a single dose of flumecinol) Group III: 6 animals (ser. Nos. 22 to 27) treatment: 40 mg/kg of body weight of flumecinol for three days, at zero time and on the 1st and 2nd day slaughtering: three animals each on the 5th and 15th days (group treated with flumecinol three times) Flumecinol is available as a micropellet containing 19.02% of active ingredient. From this and a 1% starch hydrolysate a suspension is prepared, containing 40 mg of flumecinol per 1 ml (dose used for one kg of body weight). The active compound was administered 8 o'clock in the morning, without previous fasting, through a stomach tube, in order to ensure exact conditions for the experiments. The animals were killed and samples were taken from 8 to 11 o'clock in the morning, whereupon the samples were transported into the analytical laboratory within one hour, under cooling.
Quinoxaline-2-carboxylic acid (a metabolite of Carbadox) was determined in the chop, liver and kidney tissues of three animals from each group. Each muscle and liver sample was subjected to organoleptic examination also (boiling test).
The quantity of quinoxaline-2-carboxylic acid was determined essentially following the method described in the USDA Chemistry Laboratory Guidebook (5007 Determination of Carbadox):
Following the alkaline hydrolysis of the muscle, liver and kidney samples, the hydrolysates were strongly acidified and the quinoxaline-2-carboxylic acid was extracted with ethyl acetate. The pH of the ethyl acetate extract was adjusted to 6 with a citric acid buffer, whereupon the mixture was extracted with benzene. In the next step the acid was esterified with a mixture of n-propanol and sulfuric acid, to yield propyl quinoxaline-2-carboxylate. The quantity of the latter compound was determined (after purification by thin layer chromatography) by gas chromatography. This cumbersome test procedure was always performed together with a […] control sample to which a known amount (0.2 μg-1.0 μg) of quinoxaline-2-carboxylic acid (standard) was added. The percentage of the active ingredient recovered from this sample was taken into account when calculating the residual active substance amount. In this way the error of the process was eliminated.
The test results, if not otherwise indicated, are given in μg/kg.
The quantity of quinoxaline-2-carboxylic acid in the above-specified slaughtering times is shownn in Table 1. The tests were carried out on three animals and Table 1 contains the results obtained on the individual animals. The results were also statistically evaluated for the various sorts of tissues, although in this specific case this was not really necessary, since according to the valid prescriptions the products of animal origin should not contain Carbadox at all, i.e. the limit is zero. Therefore, we considered it more important to determine when the animal tissues become entirely Carbadox-free, than to observe the differences among the tissues of the various groups of animals in the time when they were killed.

[4] = system: E.coli infections and dysentery; conditions: pigs; cited from earlier work

Row | Structure (SMILES) | elimination rate from the animals [1] | increasing the weight gain of animals [2] | amount of residue in liver, change from initial ([3]; control group, 1st day) | level of residue in liver ([3]; control group, 15th day) | amount of the Carbadox metabolite residue in the liver vs. muscle ([3]; liver) | potency in the treatment and prophylaxis of E.coli infections and dysentery [4] | quinoxaline-2-carboxylic acid in muscle, kidney and liver tissues ([3]; Carbadox, no flumecinol, 15th day following termination) | quinoxaline-2-carboxylic acid in the kidney ([3]; control group, 15th day) | presence in muscle tissue ([3]; positive control, 15 days after termination of Carbadox administration) | residual concentration, chop vs. ham ([3]; positive control, muscle tissue)
1 | COC(=O)NN=Cc1c[n+]([O-])c2ccccc2[n+]1[O-] [Carbadox, 3-(2-quinoxalinylmethylene)-carbazic acid methyl ester N,N'-dioxide, reference compound] | eliminated from the animals at a very low rate | one of the most efficious agents employed for increasing the weight gain of animals | further increased on the 1st day | a level identical with the initial concentration in the muscles | one order of magnitude higher than in the muscle tissue | very potent | – | – | – | –
2 | O=C(O)c1cnc2ccccc2n1 [quinoxaline-2-carboxylic acid, Quinoxaline-2-carboxylic acid] | – | – | – | – | – | – | significant amount | detected in the kidney even on the 15th day | present in the muscle tissue even 15 days after the termination of Carbadox administration, in a significant amount | always higher in the chop than in the ham muscle
